pIC50: −log10 of the molar value.

The subject of one data set is HT-29. In words: Cytotoxicity against human HT-29 cells assessed as growth inhibition after 72 hrs by MTT assay. The class given is functional, cell-based. The note with it: HT-29, 72 h. In general terms: Tetrazolium assays rely on reduction of a dye to a coloured formazan, in cell work by metabolically active cells.
The subject of a further data set is BXPC-3. Kind of data set: Cytotoxicity against human BxPC3 cells assessed as growth inhibition after 72 hrs by MTT assay. It counts as functional, cell-based. The note with it: BXPC-3, 72 h.
A further data set relates to MCF7. In words: Cytotoxicity against human MCF7 cells assessed as growth inhibition after 72 hrs by MTT assay. The class given is functional, cell-based. The note with it: MCF7, 72 h.
Another data set has as its system A549. Kind of data set: Cytotoxicity against human A549 cells assessed as growth inhibition after 72 hrs by MTT assay. It counts as functional, cell-based. The note with it: A549, 72 h.
Another data set concerns HepG2. Kind of data set: Cytotoxicity against human HepG2 cells assessed as growth inhibition after 72 hrs by MTT assay. It counts as functional, cell-based. The note with it: HepG2, 72 h.
Data set [1] deals with KB. Kind of data set: Cytotoxicity against vincristine-resistant human KB cells assessed as growth inhibition after 72 hrs by MTT assay. The class given is functional, cell-based.
Data set [2] has as its system MX1. Kind of data set: Cytotoxicity against taxol-resistant human MX1 cells assessed as growth inhibition after 72 hrs by MTT assay. The class given is functional, cell-based. The note with it: MX1, 72 h.
Data set [3] relates to MX1. Kind of data set: Cytotoxicity against human MX1 cells assessed as growth inhibition after 72 hrs by MTT assay. The class given is functional, cell-based. The note with it: MX1, 72 h.
Data set [4] relates to KB. In words: Cytotoxicity against human KB cells assessed as growth inhibition after 72 hrs by MTT assay. It counts as functional, cell-based.
For data set [5], the system named is Mus musculus. Kind of data set: Toxicity in KM mouse allografted with mouse H22 cells assessed as body weight at 0.5 mg/kg, ip administered on day 1 and 4 measured on day 8 (reference value: 30 +/- 3.24 g). It counts as organism-based. The arrangement: dose 0.5 mg/kg, route intraperitoneal. The note with it: in vivo.
In data set [6] the test system is H22. In words: Antitumor activity against mouse H22 cells allografted in KM mouse assessed as tumor growth inhibition at 0.25 mg/kg, ip administered on day 1 and 4 measured on day 8 relative to control. It counts as functional. The note with it: route intraperitoneal, read-out: TGI.
In data set [7] the test system is H22. Kind of data set: Antitumor activity against mouse H22 cells allografted in KM mouse assessed as tumor growth inhibition at 0.5 mg/kg, ip administered on day 1 and 4 measured on day 8 relative to control. It counts as functional. The note with it: route intraperitoneal, read-out: TGI.
Data set [8] concerns Mus musculus. Kind of data set: Toxicity in KM mouse allografted with mouse H22 cells assessed as body weight at 0.25 mg/kg, ip administered on day 1 and 4 measured on day 8 (reference value: 30 +/- 3.24 g). It counts as organism-based. The arrangement: dose 0.25 mg/kg, route intraperitoneal. The note with it: in vivo.

On to `COC(=O)c1sccc1S(=O)(=O)n1cnc2c(-c3ocnc3-c3cc(OC)c(OC)c(OC)c3)ccc(OC)c21`, for which the pIC50 (in general, the IC50 on a negative log10 scale, so that one unit is a factor of ten) was 6.79 in the data set with HT-29; 6.03 in the data set with BXPC-3; 6.36 in the data set on MCF7; 5.60 with A549; 6.87 in the data set with HepG2.
`COC(=O)n1cnc2c(OC)ccc(-c3ocnc3-c3cc(OC)c(OC)c(OC)c3)c21`: the pIC50 is 7.15 in the data set on KB [1]; 7.96 in the data set on HT-29; 7.38 with BXPC-3; 7.77 with MCF7; 8.42 with A549; 6.25 in the data set with MX1 [2]. The pIC50 in the data set on HepG2 is 7.70; in the data set on MX1 [3] it was 6.41; with KB [4], 7.57.
Consider `COc1cc(-c2ncoc2-c2ccc(OC)c3ncn(CCO)c23)cc(OC)c1OC`, for which the results for the pIC50 in the data set with HT-29, with MCF7 and with HepG2 were 6.74, 6.27 and 6.89, respectively.
Turning to `COc1cc(-c2ncoc2-c2ccc(OC)c3ncn(CCCO)c23)cc(OC)c1OC`, the pIC50 was less than 5.00 in the data set on KB [1]; 6.54 in the data set with HT-29; 6.30 with MCF7; less than 5.00 in the data set with MX1 [2]; 6.51 in the data set with HepG2; 5.42 with MX1 [3]. In addition, the pIC50 in the data set with KB [4] was 6.46.
Regarding `COc1cc(-c2ncoc2-c2ccc(OC)c3c2ncn3C)cc(OC)c1OC`, the pIC50 in the data set with KB [1] is 7.57; in the data set on HT-29 it was 7.85; in the data set with BXPC-3, 7.25; in the data set with MCF7, 7.41; in the data set with A549 it was 8.02; in the data set on MX1 [2], 4.89. Also, the pIC50 is 7.54 with HepG2, 6.48 with MX1 [3] and 7.39 with KB [4].
As for `COc1cc(-c2ncoc2-c2ccc(OC)c3ncn(C)c23)cc(OC)c1OC`, the pIC50 is 7.28 in the data set with HT-29; 6.66 with BXPC-3; 7.39 with MCF7; 7.43 in the data set on A549; 6.70 in the data set with HepG2.
In the case of `COC(=O)n1cnc2c(-c3ocnc3-c3cc(OC)c(OC)c(OC)c3)ccc(OC)c21`, the pIC50 in the data set on KB [1] is 7.28; in the data set with HT-29 it was 7.96; with BXPC-3, 7.35; with MCF7, 7.33; in the data set with A549, 8.52; with MX1 [2], 5.31. Besides, the negative logarithm of the IC50 (pIC50) is 7.60 with HepG2, 6.62 in the data set on MX1 [3] and 6.97 in the data set on KB [4].
As to `COc1cc(-c2ncoc2-c2ccc(OC)c3ncn(CC(=O)O)c23)cc(OC)c1OC`, the pIC50 in the data set on HT-29, with BXPC-3, with MCF7, with A549 and with HepG2 was less than 5.30 in each case.
Regarding `COc1cc(-c2ncoc2-c2ccc(OC)c3c2ncn3CC(N)=O)cc(OC)c1OC`, the pIC50 was less than 5.00 with HT-29, less than 5.00 with MCF7 and 6.00 with HepG2.
As to `COc1cc(-c2ncoc2-c2ccc(OC)c3c2ncn3CCO)cc(OC)c1OC`, the pIC50 in the data set on HT-29 is 6.77; with MCF7 it was 6.29; with HepG2 it was 6.60.
On to `COc1cc(-c2ncoc2-c2ccc(OC)c3c2ncn3CC#N)cc(OC)c1OC`, for which the negative logarithm of the IC50 (pIC50) in the data set on HT-29 was 6.72; in the data set with BXPC-3, 5.66; with MCF7, 7.05; in the data set with A549, 5.59; in the data set with HepG2, 7.11.
With `COc1cc(-c2ncoc2-c2ccc(OC)c3ncn(CC#N)c23)cc(OC)c1OC`, the pIC50 is 5.80 with HT-29; 5.86 in the data set with BXPC-3; 5.69 in the data set with MCF7; less than 5.30 in the data set with A549; 6.06 in the data set on HepG2.
As for `COc1cc(-c2ncoc2-c2ccc(OC)c3c2ncn3CCCO)cc(OC)c1OC`, the pIC50 with KB [1] was less than 5.00; in the data set with HT-29, 5.65; in the data set on MCF7, 5.68; with MX1 [2], 4.68; in the data set with HepG2, 6.39; in the data set on MX1 [3], less than 5.00. The pIC50 with KB [4] is 6.39.
As for `COc1ccc(/C=C\c2cc(OC)c(OC)c(OC)c2)cc1O` [COMBRETASTATIN A4], the negative logarithm of the IC50 (pIC50) with KB [1] was 8.22; in the data set with BXPC-3, more than 7.30; in the data set on MCF7, 6.66; in the data set on MX1 [2], 7.15; in the data set with MX1 [3], 7.28; in the data set on KB [4], 8.10.
On to `CC[C@]1(O)C[C@H]2CN(CCc3c([nH]c4ccccc34)[C@@](C(=O)OC)(c3cc4c(cc3OC)N(C=O)[C@H]3[C@@](O)(C(=O)OC)[C@H](OC(C)=O)[C@]5(CC)C=CCN6CC[C@]43[C@@H]65)C2)C1` [VINCRISTINE], for which the Activity is given as 25.5 g in the data set on Mus musculus [5] and 24.6 g in the data set on Mus musculus [8]. The pIC50 is less than 4.00 with KB [1]; 7.92 with HT-29; less than 6.30 in the data set on BXPC-3; 7.89 in the data set with MCF7; 7.28 in the data set on A549; 7.12 in the data set on MX1 [2]. Further, the pIC50 in the data set on HepG2 is 6.68; with MX1 [3], 7.92; in the data set on KB [4], 6.86. Besides, the inhibition in vivo at 0.25 mg/kg in the data set with H22 [6] was 31%. For the same molecule, the inhibition in vivo at 0.5 mg/kg in the data set on H22 [7] was 61%.
As for `COc1cc(-c2ncoc2-c2ccc(OC)c3c2ncn3CC(=O)O)cc(OC)c1OC`, the pIC50 in the data set on HT-29, in the data set with BXPC-3, with MCF7, in the data set on A549 and in the data set with HepG2 was less than 5.30 each time.
Regarding `CCOC(=O)Cn1cnc2c(-c3ocnc3-c3cc(OC)c(OC)c(OC)c3)ccc(OC)c21`, the pIC50 with HT-29, in the data set on BXPC-3, in the data set with MCF7, in the data set with A549 and with HepG2 was less than 6.30 each time.
In the case of `CCOC(=O)Cn1cnc2c(OC)ccc(-c3ocnc3-c3cc(OC)c(OC)c(OC)c3)c21`, the pIC50 was 6.46 in the data set with HT-29; less than 6.30 in the data set on BXPC-3; 6.38 in the data set on MCF7; 7.63 in the data set with A549; 6.30 in the data set with HepG2.
For `COc1cc(-c2ncoc2-c2ccc(OC)c3ncn(CC(N)=O)c23)cc(OC)c1OC` the same measures were 5.80, 5.86, 5.69, less than 5.30 and 6.06.

Values taken from ChEMBL document CHEMBL2424644, “Synthesis and antiproliferative evaluation of novel benzoimidazole-contained oxazole-bridged analogs of combretastatin A-4” (Eur J Med Chem, 2013).
